Holding throughout (assay type): cell-based
One assay relates to HIV-1 strain 92HT599. The assay can be described thus: Antiviral activity against HIV-1 strain 92HT599 in MT2 cells (p24 estimation). The note with it: HIV-1 92HT599, ~96 hours. The essentials: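 Percent inhibition versus vehicle controls came from p24 quantified in supernatant aliquots. These were taken after ~96 h incubation of compound (DMSO ≤1%) with MT2 cells infected at 10 TCID50/30,000 cells.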

Another assay deals with HIV-1 pNL4-3 WT. The assay can be described thus: Antiviral activity against pNL4-3/WT strain in MT4 cells (p24 estimation). Conditions: Human immunodeficiency virus 1, MT4, 96 h, read-out: pNL4-3 WT IC50. The essentials: (§1)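 MT4 cells infected with HIV-1 pNL4-3 WT or V7A (defined TCID50, 1.5 h, 37° C), plated at 3×10^4 cells/well with test compound, final DMSO ≤1%. After 4 days' culture, p24 in supernatant aliquots measured by kit.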

The subject of a further assay is HIV-1 pNL4-3 V7A. The assay can be described thus: Antiviral activity against pNL4-3/V7A strain in MT4 cells (p24 estimation). The note with it: Human immunodeficiency virus 1, MT4, 96 h, read-out: pNL4-3 V7A IC50. An outline of the steps: as §1
The mark [1] stands for this setting: Human immunodeficiency virus 1, 0% serum binding assay, read-out: IC50 0% serum.
The mark [2] stands for this setting: Human immunodeficiency virus 1, 40% serum binding assay, read-out: IC50 40% serum.

For 4 compounds, IC50 results are on record in patent US11034718B2, “C-3 novel triterpenone with C-17 reverse amide derivatives as HIV inhibitors” (HETERO LABS LIMITED, priority 2015, dated 2021).

SMILES strings stand for the structures. Read-outs that look alike come from different tables or passages of the source.

For the compound `CC(C)C1=C2[C@H]3CC[C@@H]4[C@@]5(C)CC[C@H](OC(=O)[C@H]6C[C@@H](C(=O)O)C6(C)C)C(C)(C)[C@@H]5CC[C@@]4(C)[C@]3(C)CC[C@@]2(NC(=O)C2(NC(=O)c3ncccn3)CCC2)CC1=O` [Example 44, (1R,3S)-3-((((3aR,5aR,5bR,7aR,9S,11aR,11bR,13aS)-1-isopropyl-5a,5b,8,8,11a-pentamethyl-2-oxo-3a-(1-(pyrimidine-2-carboxamido)cyclobutane-1-carboxamido)-3,3a,4,5,5a,5b,6,7,7a,8,9,10,11,11a,11b,12,13,13a-octadecahydro-2H-cyclopenta[a]chrysen-9-yl)oxy)carbonyl)-2,2-dimethylcyclobutane-1-carboxylic acid], the concentration for half-maximal inhibition (IC50) in the assay with HIV-1 strain 92HT599 (setting [1]) is under 3 nM; in the assay on HIV-1 strain 92HT599 (setting [2]), 50 to 200 nM; in the assay with HIV-1 pNL4-3 WT it was over 10 nM; in the assay on HIV-1 pNL4-3 V7A, over 50 nM.

As for `CC(C)C1=C2[C@H]3CC[C@@H]4[C@@]5(C)CC[C@H](OC(=O)[C@H]6C[C@@H](C(=O)O)C6(C)C)C(C)(C)[C@@H]5CC[C@@]4(C)[C@]3(C)CC[C@@]2(NC(=O)C2(NC(=O)c3cccnc3N3CCOCC3)CCC2)CC1=O` [Example 45, (1R,3S)-3-((((3aR,5aR,5bR,7aR,9S,11aR,11bR,13aS)-1-isopropyl-5a,5b,8,8,11a-pentamethyl-3a-(1-(2-morpholinonicotinamido)cyclobutane-1-carboxamido)-2-oxo-3,3a,4,5,5a,5b,6,7,7a,8,9,10,11,11a,11b,12,13,13a-octadecahydro-2H-cyclopenta[a]chrysen-9-yl)oxy)carbonyl)-2,2-dimethylcyclobutane-1-carboxylic acid], the IC50 in the assay on HIV-1 strain 92HT599 (setting [1]) was 3.01 to 10 nM; in the assay with HIV-1 strain 92HT599 (setting [2]), under 50 nM; with HIV-1 pNL4-3 WT, under 5 nM; in the assay on HIV-1 pNL4-3 V7A it was 10 to 50 nM.

For the compound `Cc1ccc(C(=O)NC2(C(=O)N[C@@]34CC[C@]5(C)[C@H](CC[C@@H]6[C@@]7(C)CC[C@H](OC(=O)[C@H]8C[C@@H](C(=O)O)C8(C)C)C(C)(C)[C@@H]7CC[C@]65C)C3=C(C(C)C)C(=O)C4)CCCC2)cn1` [Example 47, (1R,3S)-3-((((3aR,5aR,5bR,7aR,9S,11aR,11bR,13aS)-1-isopropyl-5a,5b,8,8,11a-pentamethyl-3a-(1-(6-methylnicotinamido)cyclopentane-1-carboxamido)-2-oxo-3,3a,4,5,5a,5b,6,7,7a,8,9,10,11,11a,11b,12,13,13a-octadecahydro-2H-cyclopenta[a]chrysen-9-yl)oxy)carbonyl)-2,2-dimethylcyclobutane-1-carboxylic acid], the IC50 with HIV-1 strain 92HT599 (setting [1]) was under 3 nM; with HIV-1 strain 92HT599 (setting [2]), under 50 nM; with HIV-1 pNL4-3 WT, under 5 nM; in the assay with HIV-1 pNL4-3 V7A, under 10 nM.

For `CC(C)C1=C2[C@H]3CC[C@@H]4[C@@]5(C)CC[C@H](OC(=O)[C@H]6C[C@@H](C(=O)O)C6(C)C)C(C)(C)[C@@H]5CC[C@@]4(C)[C@]3(C)CC[C@@]2(NC(=O)C(C)(C)NC(=O)c2ccc(S(C)(=O)=O)cc2)CC1=O` [Example 51, (1R,3S)-3-((((3aR,5aR,5bR,7aR,9S,11aR,11bR,13aS)-1-isopropyl-5a,5b,8,8,11a-pentamethyl-3a-(2-methyl-2-(4-(methylsulfonyl)benzamido)propanamido)-2-oxo-3,3a,4,5,5a,5b,6,7,7a,8,9,10,11,11a,11b,12,13,13a-octadecahydro-2H-cyclopenta[a]chrysen-9-yl)oxy)carbonyl)-2,2-dimethylcyclobutane-1-carboxylic acid], the IC50 is under 3 nM with HIV-1 strain 92HT599 (setting [1]), under 50 nM with HIV-1 strain 92HT599 (setting [2]), 5.01 to 10 nM in the assay on HIV-1 pNL4-3 WT and over 50 nM with HIV-1 pNL4-3 V7A.

As usually defined, the IC50 is the midpoint of a concentration-inhibition curve.
